Reference: patent US10105357B2, “Indication of antibiotic drugs for preparation of cancer inhibition pharmaceutical composition” (LAUNX BIOMEDICAL CO., LTD., priority 2014, dated 2018)

What was measured:
Assay type in all cases: cell-based, human
[1] = system: PC3 (p53−) (Prostate Adenocarcinoma); test: Cell viability analysis, prostate cancer PC3; conditions: 72 h
[2] = system: AGS (Gastric Adenocarcinoma); test: Cell viability analysis, gastric cancer AGS; conditions: for viability at 10 µM: Homo sapiens, 72 h, read-out: cell viability (survival rate), AGS, drug 10 μM, 72 hours, WST-1, OD450 nm; for cell viability (survival rate), AGS: drug 10 μM, 72 hours, WST-1, OD450 nm
[3] = system: A375 (Amelanotic Melanoma); test: Cell viability analysis, skin cancer A375; conditions: for viability at 10 µM: Homo sapiens, A-375, 72 h, read-out: cell viability (survival rate), A375, drug 10 μM, 72 hours, WST-1, OD450 nm; for cell viability (survival rate), A375: drug 10 μM, 72 hours, WST-1, OD450 nm
[4] = system: TSGH-8301 (Urinary Bladder Carcinoma); test: Cell viability analysis, bladder cancer TSGH-8301; conditions: for viability at 10 µM: Homo sapiens, 72 h, read-out: cell viability (survival rate), TSGH, drug 10 μM, 72 hours, WST-1, OD450 nm
[5] = system: HepG2 (Hepatocellular Carcinoma); test: Cell viability analysis, hepatic cancer HepG2; conditions: for viability at 10 µM: Homo sapiens, HepG2, 72 h, read-out: cell viability (survival rate), HepG2, drug 10 μM, 72 hours, WST-1, OD450 nm
[6] = system: HI650 (Lung Adenocarcinoma); test: Cell viability analysis, lung cancer HI650; conditions: for viability at 10 µM: Homo sapiens, NCI-H1650, 72 h, read-out: cell viability (survival rate), H1650, drug 10 μM, 72 hours, WST-1, OD450 nm; for cell viability (survival rate), H1650: drug 10 μM, 72 hours, WST-1, OD450 nm
[7] = system: MCF7 (Mammary Gland, Adenocarcinoma); test: Cell viability analysis, breast cancer MCF7; conditions: for viability at 10 µM: Homo sapiens, MCF7, 72 h, read-out: cell viability (survival rate), MCF7, drug 10 μM, 72 hours, WST-1, OD450 nm
[8] = system: cancer cell lines; test: Cell viability analysis (WST-1) on cancer cell lines; conditions: drug 10 μM, 72 hours; for inhibition effect on different cancer cell lines: WST-1, Table 3
[9] = system: A549 (Lung Adenocarcinoma); test: Cell viability analysis, lung cancer A549; conditions: for viability at 10 µM: Homo sapiens, A549, 72 h, read-out: cell viability (survival rate), A549, drug 10 μM, 72 hours, WST-1, OD450 nm
[10] = system: HeLa (Cervix Adenocarcinoma); test: Cell viability analysis, cervical cancer HeLa; conditions: for viability at 10 µM: Homo sapiens, HeLa, 72 h, read-out: cell viability (survival rate), HeLa, drug 10 μM, 72 hours, WST-1, OD450 nm; for cell viability (survival rate), HeLa: drug 10 μM, 72 hours, WST-1, OD450 nm
[11] = system: LoVo (Colorectal Adenocarcinoma); test: Cell viability analysis, colon cancer LoVo; conditions: for viability at 10 µM: Homo sapiens, LoVo, 72 h, read-out: cell viability (survival rate), LoVo, drug 10 μM, 72 hours, WST-1, OD450 nm; for cell viability (survival rate), LoVo: drug 10 μM, 72 hours, WST-1, OD450 nm
[12] = system: MKN-45 (Gastric Adenocarcinoma); test: Cell viability analysis, gastric cancer MKN-45; conditions: for viability at 10 µM: Homo sapiens, MKN-45, 72 h, read-out: cell viability (survival rate), MKN-45, drug 10 μM, 72 hours, WST-1, OD450 nm
[13] = system: HL-60 (Acute Promyelocytic Leukemia); test: Cell viability analysis, leukemia HL-60; conditions: for viability at 10 µM: Homo sapiens, HL-60, 72 h, read-out: cell viability (survival rate), HL-60, drug 10 μM, 72 hours, WST-1, OD450 nm; for cell viability (survival rate), HL-60: drug 10 μM, 72 hours, WST-1, OD450 nm
[14] = drug 10 μM, 72 hours, WST-1, OD450 nm

| Molecule | viability at 10 µM [2] [%] | viability at 10 µM [3] [%] | viability at 10 µM [4] [%] | viability at 10 µM [5] [%] | viability at 10 µM [6] [%] | inhibition effect on different cancer cell lines [8] | viability at 10 µM [10] [%] | viability at 10 µM [11] [%] | viability at 10 µM [7] [%] | viability at 10 µM [9] [%] | viability at 10 µM [13] [%] | viability at 10 µM [12] [%] | other results |
| --- | --- | --- | --- | --- | --- | --- | --- | --- | --- | --- | --- | --- | --- |
| CC1(C)S[C@@H]2[C@H](NC(=O)[C@H](N)c3ccccc3)C(=O)N2[C@H]1C(=O)O [Ampicillin sodium] | 105 | 68.9 | 72 | 76.1 | 53.5 | significant inhibition effect | 75.2 | 88.9 |  |  |  |  | cell viability (survival rate), PC3 ([1]; human, 10 µM): 98.1; cell viability (survival rate), MCF7 ([7]; human, 72 h, 10 µM): 99.1; cell viability (survival rate), A549 ([9]; human, 72 h, 10 µM): 102.6; cell viability (survival rate), MKN-45 ([12]; human, 72 h, 10 µM): 77.9 |
| O=C(O)CCCC[C@@H]1SC[C@@H]2NC(=O)N[C@@H]21 [Biotin (Vitamin B7), Biotin] | 104 | 71.3 | 93.5 |  | 94.2 | significant inhibition effect | 90.7 | 99.2 | 89.1 | 86.4 | 85.2 | 85.1 |  |
| CN(C)CCC(c1ccc(Br)cc1)c1ccccn1 (stereo not shown) [Brompheniramine] | 121 |  | 97.9 | 95.7 | 83 | significant inhibition effect | 111 | 98.9 | 75.8 | 109 | 122 | 85.8 |  |
| CC(=O)OCC1=C(C(=O)O)N2C(=O)[C@@H](NC(=O)CSc3ccncc3)[C@H]2SC1 [Cephapirin Sodium] | 79.8 | 50.2 | 78.2 | 79.8 | 76.2 | significant inhibition effect | 69.2 | 92.8 | 49.5 | 57.7 | 84.3 | 69.1 |  |
| O=c1[nH]cnc2c1ncn2[C@H]1CC[C@@H](CO)O1 [Didanosine (Videx), Didanosine] | 48.7 | 77.2 | 76.7 | 119 | 64.2 | significant inhibition effect | 80.3 | 95.1 | 78.4 | 67.5 | 126 | 62 |  |
| C[C@@H](O)[C@H]1C(=O)N2C(C(=O)O)=C(S[C@@H]3CN[C@H](CNS(N)(=O)=O)C3)[C@H](C)[C@H]12 [Doripenem Hydrate] | 66.5 |  | 79.9 | 106 | 78.5 | significant inhibition effect | 122 | 95.2 | 99.8 | 70.9 | 91.2 | 111 |  |
| C[C@]12CCC(=O)C=C1CC[C@@H]1[C@@H]2[C@@H](O)C[C@@]2(C)[C@H]1CC[C@]2(O)C(=O)CO [Hydrocortisone (Cortisol), Hydrocortisone] | 77.5 | 87.6 | 125 | 109 | 66.1 | significant inhibition effect | 86.1 | 83.3 | 76.9 | 73.6 | 105 | 81.3 |  |
| CCn1cc(C(=O)O)c(=O)c2ccc(C)nc21 [Nalidixic acid (NegGram), Nalidixic acid] | 57.3 | 87.9 | 46.3 | 96.8 | 72 | significant inhibition effect | 95.8 | 91.5 | 86 | 83.8 | 113 | 54.9 |  |
| Cc1cccn2c(=O)c(-c3nnn[nH]3)cnc12 [Pemirolast (BMY 26517) potassium, Pemirolast potassium] | 69.4 | 70.8 | 93.7 | 82.1 | 81.8 | significant inhibition effect | 88.4 | 107 | 83.2 | 82.9 |  |  | viability at 10 µM ([1]; Homo sapiens, read-out: cell viability (survival rate), PC3, drug 10 μM, 72 hours, WST-1, OD450 nm): 53.8% |
| CCN1CCN(C(=O)N[C@@H](C(=O)N[C@@H]2C(=O)N3[C@@H]2SC(C)(C)[C@@H]3C(=O)O)c2ccccc2)C(=O)C1=O [Piperacillin Sodium] | 98.3 | 67.9 | 87.1 | 96.3 | 71.6 | significant inhibition effect |  | 97.4 | 52.3 | 37.1 | 108 | 87.1 |  |
| Clc1ccc(C(Cn2ccnc2)OCc2csc3c(Cl)cccc23)c(Cl)c1 (stereo not shown) [Sertaconazole nitrate] | 97.1 | 52 | 89.4 | 77.4 | 96.3 | significant inhibition effect | 58.9 | 94.9 | 76.4 | 75.4 | 73.4 | 69.5 |  |
| [H]/N=C(/N)NS(=O)(=O)c1ccc(N)cc1 [Sulfaguanidine] | 84 | 145 | 107 | 96.1 | 95.6 | significant inhibition effect | 113 | 78.9 | 92.6 | 82.2 | 99.1 | 83.5 |  |
| Colistin Sulfate |  |  |  |  |  | significant inhibition effect |  |  |  |  |  |  | cell viability (survival rate), AGS [2]: 26.1; cell viability (survival rate), A375 [3]: 36.1; cell viability (survival rate), TSGH [4, 14]: 36.2; cell viability (survival rate), HepG2 [5, 14]: 77.7; cell viability (survival rate), H1650 [6]: 62.2; cell viability (survival rate), A549 [9, 14]: 97.6; cell viability (survival rate), HL-60 [13]: 108.9; cell viability (survival rate), HeLa [10]: 84.3; cell viability (survival rate), LoVo [11]: 92.0 |
| Salbutamol sulfate [Salbutamol sulfate (Albuterol)] |  |  |  |  |  | significant inhibition effect |  |  |  |  |  |  | cell viability (survival rate), AGS [2]: 91.8; cell viability (survival rate), A375 [3]: 98.0; cell viability (survival rate), H1650 [6]: 84.3; cell viability (survival rate), MCF7 [7, 14]: 139.6; Inhibitory effect on cancer cell line ([8]; WST-1, OD450 nm, Table 2: drugs which do not have significant inhibitory effect): 0; cell viability (survival rate), A549 [9, 14]: 94.6; cell viability (survival rate), HL-60 [13]: 104.1; cell viability (survival rate), HeLa [10]: 99.9; cell viability (survival rate), LoVo [11]: 97.1; cell viability (survival rate), MKN-45 [12, 14]: 71.2 |
